# Reference: US12493040B2, “Cancer detection method using sense of smell of nematode” (HIROTSU BIO SCIENCE INC., priority 2013, dated 2025)
# Test system: RNAi-treated eri-1 (mg366) nematodes
# Assay: RNAi screening of olfactory receptor genes: chemotaxis assay of RNAi-treated nematodes to odorants
# Type: in vivo, Caenorhabditis elegans
# Details: low concentration of attractant
# In short: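 Chemotaxis of adult RNAi-fed eri-1 (mg366) nematodes (30–50 per test) was measured toward low (1 μl, 10^−3 or 10^−4 dilution) or high (1 and 5 μl neat) odorant doses. Knockdown: 4 days feeding on E. coli from Ahringer library with IPTG and ampicillin. Differences called by z score at ±1.96, weaker cutoff ±0.96.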
smiles,measurement,setting,value
c1cnccn1 [pyrazine],chemotaxis index,Control nematodes,0.49 ± 0.019
same,chemotaxis index,srh-10 RNAi-treated nematodes,0.67
same,chemotaxis index,srh-11 RNAi-treated nematodes,0.87
same,chemotaxis index,srh-15 RNAi-treated nematodes,0.78
same,chemotaxis index,srh-16 RNAi-treated nematodes,0.82
same,chemotaxis index,srh-18 RNAi-treated nematodes,0.73
same,chemotaxis index,srh-19 RNAi-treated nematodes,0.33
same,chemotaxis index,srh-22 RNAi-treated nematodes,0.82
same,chemotaxis index,srh-23 RNAi-treated nematodes,0.43
same,chemotaxis index,srh-24 RNAi-treated nematodes,0.57
same,chemotaxis index,srh-25 RNAi-treated nematodes,0.64
same,chemotaxis index,srh-27 RNAi-treated nematodes,0.32
same,chemotaxis index,srh-28 RNAi-treated nematodes,0.23
same,chemotaxis index,srh-36 RNAi-treated nematodes,0.53
same,chemotaxis index,srh-37 RNAi-treated nematodes,0.88
same,chemotaxis index,srh-39 RNAi-treated nematodes,0.11
same,chemotaxis index,srh-40 RNAi-treated nematodes,0.51
same,chemotaxis index,srh-41 RNAi-treated nematodes,0.71
same,chemotaxis index,srh-44 RNAi-treated nematodes,0.44
same,chemotaxis index,srh-45 RNAi-treated nematodes,0.74
same,chemotaxis index,srh-46 RNAi-treated nematodes,−0.04
same,chemotaxis index,srh-48 RNAi-treated nematodes,0.15
same,chemotaxis index,srh-49 RNAi-treated nematodes,0.52
same,chemotaxis index,srh-50 RNAi-treated nematodes,0.83
same,chemotaxis index,srh-51 RNAi-treated nematodes,0.31
same,chemotaxis index,srh-52 RNAi-treated nematodes,0.55
same,chemotaxis index,srh-55 RNAi-treated nematodes,0.56
same,chemotaxis index,srh-59 RNAi-treated nematodes,0.04
same,chemotaxis index,srh-60 RNAi-treated nematodes,0.52
same,chemotaxis index,srh-61 RNAi-treated nematodes,0.27
same,chemotaxis index,srh-67 RNAi-treated nematodes,0.39
same,chemotaxis index,srh-68 RNAi-treated nematodes,0.36
same,chemotaxis index,srh-69 RNAi-treated nematodes,0.35
same,chemotaxis index,srh-70 RNAi-treated nematodes,0.41
same,chemotaxis index,srh-71 RNAi-treated nematodes,0.56
same,chemotaxis index,srh-72 RNAi-treated nematodes,0.50
same,chemotaxis index,srh-74 RNAi-treated nematodes,0.26
same,chemotaxis index,srh-75 RNAi-treated nematodes,0.71
same,chemotaxis index,srh-77 RNAi-treated nematodes,0.44
same,chemotaxis index,srh-79 RNAi-treated nematodes,0.12
same,chemotaxis index,srh-80 RNAi-treated nematodes,0.40
same,chemotaxis index,srh-82 RNAi-treated nematodes,0.31
same,chemotaxis index,srh-83 RNAi-treated nematodes,0.38
same,chemotaxis index,srh-97 RNAi-treated nematodes,0.66
same,chemotaxis index,srh-99 RNAi-treated nematodes,0.29
same,chemotaxis index,srh-100 RNAi-treated nematodes,0.30
same,chemotaxis index,srh-104 RNAi-treated nematodes,−0.18
same,chemotaxis index,srh-105 RNAi-treated nematodes,0.32
same,chemotaxis index,srh-109 RNAi-treated nematodes,0.32
same,chemotaxis index,srh-111 RNAi-treated nematodes,−0.23
same,chemotaxis index,srh-113 RNAi-treated nematodes,0.35
same,chemotaxis index,srh-115 RNAi-treated nematodes,0.19
same,chemotaxis index,srh-116 RNAi-treated nematodes,0.35
same,chemotaxis index,srh-118 RNAi-treated nematodes,0.36
same,chemotaxis index,srh-119 RNAi-treated nematodes,0.37
same,chemotaxis index,srh-120 RNAi-treated nematodes,0.54
same,chemotaxis index,srh-122 RNAi-treated nematodes,0.47
same,chemotaxis index,srh-123 RNAi-treated nematodes,0.63
same,chemotaxis index,srh-125 RNAi-treated nematodes,0.39
same,chemotaxis index,srh-128 RNAi-treated nematodes,0.54
same,chemotaxis index,srh-129 RNAi-treated nematodes,0.71
same,chemotaxis index,srh-130 RNAi-treated nematodes,0.22
same,chemotaxis index,srh-214 RNAi-treated nematodes,0.72
same,chemotaxis index,srh-216 RNAi-treated nematodes,0.60
same,chemotaxis index,srh-217 RNAi-treated nematodes,0.94
same,chemotaxis index,srh-220 RNAi-treated nematodes,0.40
same,chemotaxis index,srh-222 RNAi-treated nematodes,0.65
same,chemotaxis index,srh-223 RNAi-treated nematodes,0.43
same,chemotaxis index,srh-227 RNAi-treated nematodes,0.35
same,chemotaxis index,srh-229 RNAi-treated nematodes,0.09
same,chemotaxis index,srh-233 RNAi-treated nematodes,0.49
same,chemotaxis index,srh-235 RNAi-treated nematodes,0.73
same,chemotaxis index,srh-236 RNAi-treated nematodes,0.44
same,chemotaxis index,srh-239 RNAi-treated nematodes,0.54
same,chemotaxis index,srh-241 RNAi-treated nematodes,0.78
same,chemotaxis index,srh-243 RNAi-treated nematodes,0.48
same,chemotaxis index,srh-244 RNAi-treated nematodes,0.34
same,chemotaxis index,srh-247 RNAi-treated nematodes,0.49
same,chemotaxis index,srh-250 RNAi-treated nematodes,0.55
same,chemotaxis index,srh-251 RNAi-treated nematodes,0.32
same,chemotaxis index,srh-252 RNAi-treated nematodes,0.87
same,chemotaxis index,srh-258 RNAi-treated nematodes,0.44
same,chemotaxis index,srh-261 RNAi-treated nematodes,0.57
same,chemotaxis index,srh-264 RNAi-treated nematodes,0.85
same,chemotaxis index,srh-266 RNAi-treated nematodes,−0.14
same,chemotaxis index,srh-274 RNAi-treated nematodes,0.12
same,chemotaxis index,srh-275 RNAi-treated nematodes,0.42
same,chemotaxis index,srh-276 RNAi-treated nematodes,0.44
same,chemotaxis index,srh-277 RNAi-treated nematodes,0.81
same,chemotaxis index,srh-279 RNAi-treated nematodes,0.37
same,chemotaxis index,srh-281 RNAi-treated nematodes,0.01
same,chemotaxis index,srh-282 RNAi-treated nematodes,0.55
same,chemotaxis index,srh-283 RNAi-treated nematodes,0.26
same,chemotaxis index,srh-284 RNAi-treated nematodes,0.49
same,chemotaxis index,srh-291 RNAi-treated nematodes,0.82
same,chemotaxis index,srh-292 RNAi-treated nematodes,0.43
same,chemotaxis index,srh-293 RNAi-treated nematodes,0.59
same,chemotaxis index,srh-297 RNAi-treated nematodes,0.29
same,chemotaxis index,srh-298 RNAi-treated nematodes,0.33
same,chemotaxis index,srh-308 RNAi-treated nematodes,0.15
